Reference: patent US20240010989A1, “MEDIUM FOR CULTURING AND EXPANDING NEPHRON PROGENITOR CELLS, METHOD FOR CULTURING AND EXPANDING NEPHRON PROGENITOR CELLS, AND METHOD FOR PRODUCING RENAL ORGANOIDS” (Kyoto University, priority 2021, published 2024)

Assays:
Type in all cases: cell-based, human
hNPC (c-MET(+)) [1] = assay: Expression of NPC markers OSR1 and SIX2 in subcultured hNPC (c-MET(+)); conditions: 3 nM in CFY medium, subculture of hNPC (c-MET(+))
Procedure: (§1) Ten μL of human-HGFR/c-MET antibody to which the fluorescent substance APC had been bound (FAB 3582A, R&D Systems Inc.) was added to 100 μL of the 2% FBS suspension of the induced hNPC cells prepared above, and the resultant was left to stand for 30 minutes on ice. After 30 minutes, the sample was centrifuged at 200 g for 5 minutes, the supernatant was removed, the residue was washed with 1 mL of PBS, and the sample was once again centrifuged at 200 g for 5 minutes and the supernatant removed. This operation was conducted twice. […]
(§2) A cell mass of the human iPS cell-derived NPC (hNPC) cultured in the test medium was transferred to a 1.5 ml tube, the supernatant was removed completely, 30 μL of Accumax (Innovative Cell Technologies, Inc.) was added, and the resultant was left to stand for 10 minutes in an incubator at 37° C. and 5% CO2. After 10 minutes, the sample was suspended in 470 μL of 10% FBS, and the cell count was measured with a TC20 (Bio-Rad Laboratories, Inc.). […] Subsequently, 48 hours after this additional administration, the above operations were repeated, with the cell count being measured and a subculture conducted.
(§3) Expression of OSR1 and SIX2 was confirmed by conducting a culture test using these human iPS cells, and detecting the respective fluorescence from the GFP and tdTomato using a fluorescence microscope. […]

hNPC (Bulk) [2] = assay: Cell growth (cell count, cumulative cell count) of hNPC (Bulk); conditions: 3 nM in CFY medium (CFY+TG(3)) vs CFY+DMSO
Procedure: The hNPC were suspended in 50 μL of a test medium in sufficient amount to achieve 2.0×10^4 cells per well, and the suspension was then used to inoculate a low-attachment 96-well plate (Nunc), and following centrifuging at 300 g for 3 minutes, the cells were subjected to a static culture in an incubator at 37° C. and 5% CO2. Six hours after starting the static culture, a cell mass had formed.
(§4) Subsequently, 48 hours after the start of the static culture, an additional 100 μL of the same medium as that used at the time of cell inoculation was administered to each well. […] After 10 minutes, the sample was suspended in 470 μL of 10% FBS, and the cell count was measured with a TC20 (Bio-Rad Laboratories, Inc.).
as §2, with “conducted. […]” for “conducted.”

hNPC (c-MET(+)) [3] = assay: Production of renal organoids from subcultured hNPC (c-MET(+)); conditions: 3 nM in CFY medium, cells of passage 1
Procedure: Ten μL of human-HGFR/c-MET antibody to which the fluorescent substance APC had been bound (FAB 3582A, R&D Systems Inc.) was added to 100 μL of the 2% FBS suspension of the induced hNPC cells prepared above, and the resultant was left to stand for 30 minutes on ice. After 30 minutes, the sample was centrifuged at 200 g for 5 minutes, the supernatant was removed, the residue was washed with 1 mL of PBS, and the sample was once again centrifuged at 200 g for 5 minutes and the supernatant removed. This operation was conducted twice. The cells obtained following removal of the supernatant were suspended in DAPI that had been diluted 1,000-fold with 2% FBS, and following filtration through a 40 μm filter, flow cytometry was used to extract the c-MET-positive cells.
A cell mass of hNPC that had been subcultured in the test medium were placed in a Transwell (Corning), and the surrounding medium was removed. Next, the Transwell with the cell mass thereon was set in a culture dish that had been filled with 5% KSR (Kock-out Serum Replacement) (Thermo Fisher Scientific) to which 200 ng/mL of FGF2 and 5 μM of CHIR99021 had been added in advance. After 48 hours, the medium was replaced with 5% KSR containing no added growth factors or low-molecular weight compounds. […]

hNPC (Bulk) [4] = assay: Production of renal organoids from subcultured hNPC (Bulk); conditions: 3 nM in CFY medium, cells of passage 2
Procedure: A cell mass of hNPC that had been subcultured in the test medium were placed in a Transwell (Corning), and the surrounding medium was removed. Next, the Transwell with the cell mass thereon was set in a culture dish that had been filled with 5% KSR (Kock-out Serum Replacement) (Thermo Fisher Scientific) to which 200 ng/mL of FGF2 and 5 μM of CHIR99021 had been added in advance. After 48 hours, the medium was replaced with 5% KSR containing no added growth factors or low-molecular weight compounds. Thereafter, the medium was replaced every 48 hours with fresh 5% KSR containing no added growth factors or low-molecular weight compounds, and on the 10th day after starting the differentiation culture, the cells were fixed for 3 hours at 4° C. using 4% PFA without removal from the Transwell. Following fixing, the medium was replaced with PBS, and after standing overnight at 4° C., immunostaining was conducted.
Bright field images of renal organoids were captured using either a KEYENCE BZ-X700 or a confocal microscope (Zeiss LSM710). Image analysis was performed using Image J version 1.51j8 (National Institutes of Health) (C. A. Schneider, et al., Nat Methods. 9 (2012) 671 to 675.).
Attempts were made to produce renal organoids from hNPC (Bulk) that had been subcultured using either the hNPSR medium or the CFY medium.

hNPC (c-MET(+)) [5] = assay: Cell growth (cumulative cell count) in subculture of hNPC (c-MET(+)); conditions: 3 nM in CFY medium vs CFY+DMSO
Procedure: as §1, §4
A cell mass of the human iPS cell-derived NPC (hNPC) cultured in the test medium was transferred to a 1.5 ml tube, the supernatant was removed completely, 30 μL of Accumax (Innovative Cell Technologies, Inc.) was added, and the resultant was left to stand for 10 minutes in an incubator at 37° C. and 5% CO2. After 10 minutes, the sample was suspended in 470 μL of 10% FBS, and the cell count was measured with a TC20 (Bio-Rad Laboratories, Inc.). […]

hNPC (Bulk) [6] = assay: Expression of NPC markers SIX2 and OSR1 in subcultured hNPC (Bulk); conditions: 3 nM in CFY medium, subculture of hNPC (Bulk)
Procedure: A cell mass of the human iPS cell-derived NPC (hNPC) cultured in the test medium was transferred to a 1.5 ml tube, the supernatant was removed completely, 30 μL of Accumax (Innovative Cell Technologies, Inc.) was added, and the resultant was left to stand for 10 minutes in an incubator at 37° C. and 5% CO2. After 10 minutes, the sample was suspended in 470 μL of 10% FBS, and the cell count was measured with a TC20 (Bio-Rad Laboratories, Inc.). The human iPS cell-derived NPC were suspended in the test medium and then used to inoculate a low-attachment 96-well plate (Nunc) in an amount of 2.0×10^4 cells per well. This low-attachment 96-well plate that had been inoculated with the cells was centrifuged at 300 g for 3 minutes, and the cells were then subjected to static culture in an incubator at 37° C. and 5% CO2. Then, 48 hours after starting this static culture, an additional 100 μL of the test medium was administered to each well. Subsequently, 48 hours after this additional administration, the above operations were repeated, with the cell count being measured and a subculture conducted.
as §3

hiPSC = assay: Differentiation induction efficiency of SIX2-positive cells, hNPC from hiPSC (differentiation induction method B)
Procedure: <Method for Differentially Inducing hNPC from hiPSC (Differentiation Induction Method B)> • 1. Undifferentiated hiPSC were converted to single cells using a TrypLE Select Enzyme (Gibco), and then using a medium prepared using DMEM/F12 Glutamax (Invitrogen) supplemented with B27 as the basal medium and adding 1 μM of CHIR99021, 10 nM of retinoic acid, 1 ng/ml of BMP4, 100 ng/ml of FGF2, 10 μM of Y-27632 and iMatrix-511 (Nippi) to this basal medium, plating was conducted at a density within a range from 1.0×10^4 cells/well to 5.0×10^4 cells/well, and the cells were then incubated for 24 hours at 37° C. (production of a late posterior epiblast: step 1). • 2. On day 1, medium replacement was conducted using a medium prepared by adding 5 μM of CHIR99021, 1 ng/ml of BMP7 and 100 ng/ml of FGF2 to the same basal medium as above (production of a mesodermal-lineage primitive streak: step 2). • 3. On day 2, medium replacement was conducted using a medium prepared by adding 5 μM of CHIR99021, 1 ng/ml of BMP7, 100 ng/ml of FGF2 and 10 μM of A83-01 to the same basal medium as above (production of a mesodermal-lineage late primitive streak: step 3). • 4. On day 3, medium replacement was conducted using a medium prepared by adding 5 μM of CHIR99021, 100 ng/ml of FGF2, 1 ng/ml of BMP7, 10 ng/ml of activin A and 30 μM of Y-27632 to the same basal medium (production of a metanephric-lineage late primitive streak: step 4). • 5. On day 6, medium replacement was conducted using a medium prepared by adding 100 nM of retinoic acid, 200 ng/ml of FGF9 and 25 ng/ml of Noggin to the same basal medium (production of a late posterior intermediate mesoderm: step 5). • 6. On day 8, medium replacement was conducted using a medium prepared by adding 1 μM of CHIR99021 and 200 ng/ml FGF9 to the same basal medium (production of hNPC: step 6).

Cc1cnc(Nc2ccc(OCCN3CCCC3)cc2)nc1Nc1cccc(S(=O)(=O)NC(C)(C)C)c1 [TG101348]
expression of both OSR1 and SIX2 (hNPC (c-MET(+)) [1]): maintained up until passage 3 | cell growth (cell count) (hNPC (Bulk) [2]): promoted more | renal organoid formation (hNPC (c-MET(+)) [3]): formed | renal organoid formation (hNPC (Bulk) [4]): formed | cell growth (cumulative cell count) (hNPC (c-MET(+)) [5]): better promoted in all passages | expression of both OSR1 and SIX2 (hNPC (Bulk) [6]): maintained up until passage 3

heparin
hNPC induction efficiency (hiPSC; 0.18 U/ml (1 μg/ml) heparin added with FGF2 in step 4): no effect | hNPC induction efficiency (hiPSC; 0.18 U/ml (1 μg/ml) heparin added with FGF9 in step 5): no effect

FGF2: fibroblast growth factor 2 (basic FGF)
induction efficiency into hNPC (hiPSC; FGF2 concentration in step 4 reduced to 10 ng/mL or less): decreased | hNPC induction efficiency (hiPSC; concentration of FGF2 in step 3 varied (100, 30, 10 ng/ml)): no effect
